Six compounds from patent publication US7786142B2, “Heterocyclic compounds as pSTAT3/IL-6 inhibitors” (Orchid Research Laboratories, Ltd., priority 2005, dated 2010) can be followed below.

The test system of series [1] is HCT116 cells. The series can be described thus: Anti-cancer screen (MTT), HCT116 cells. Format: cell-based. Particulars: Homo sapiens, HCT-116, HCT116, 48 hours, concentrations tested 0.01-100 μM. The protocol: (§1) Experimental drugs are screened for anti-cancer activity in three cell lines for their GI50, TGI and LC50 values (using five concentrations for each compound). The cell lines are maintained in DMEM containing 10% fetal bovine serum. 96 well micro titer plates are inoculated with cells in 100 μL for 24 hours at 37° C., 5% CO2, 95% air and 100% relative humidity. 5000 HCT116 cells/well, 5000 NCIH460 cells/well and 5000 U251 cells/well are plated. A separate plate with these cell lines is also inoculated to determine cell viability before the addition of the compounds (T0), (See Table I).
(§2) Following 24-hours incubation, experimental drugs are added to the 96 well plates. Each plate contains one of the above cell lines and the following in triplicate: five different concentrations (0.01, 0.1, 1, 10 and 100 μM) of four different compounds, appropriate dilutions of a cytotoxic standard and control (untreated) wells. Compounds are dissolved in DMSO to make 20 mM stock solutions on the day of drug addition and frozen at −20° C. Serial dilutions of these 20 mM stock solutions are made in complete growth medium such that 100 μL of these drug solutions in medium, of final concentrations equaling 0.01, 0.1, 1, 10 and 100 μM can be added to the cells in triplicate. Standard drugs whose anti-cancer activity has been well documented and which are regularly used are Doxorubicin and SAHA, (See Table I).
(§3) For T0 measurement, 24 hours after seeding the cells, 10 μL of 3-(4,5-Dimethyl-2-thiazolyl)-2,5-diphenyl-2H-tetrazolium (MTT) solution per well is added and incubation carried out for 3 hours at 37° C., 5% CO2, 95% air and 100% relative humidity, protected from light. Cells incubated with compounds for 48 hours are treated similarly except with the addition of 20 μL MTT solution per well and a subsequent incubation under the same conditions. After 3 hours of MTT incubation, well contents are aspirated carefully followed by addition of 150 μL DMSO per well. Plates are agitated to ensure solution of the formazan crystals in DMSO and absorbance read at 570 nm, (See Table I).
(§4) Percent growth is calculated for each compound's concentration relative to the control and zero measurement wells (T0; viability right before compound addition). If a test well's O.D. value is greater than the T0 measurement for that cell line % Growth=(test−zero)/(control−zero)×100

Series [2] has as its system pSTAT3. In words: pSTAT3 inhibition (Western blot in DU 145 / SKOV-3 cells; ELISA in HepG2 cells). Type of series: cell-based. Particulars: in words; FIGS. 1 and 2. How it is done:
Western blot analysis was performed as described by Kammer W et. al (J Biol Chem 271, 23634-23637, and J Biol Chem 273, 31222-31229). Briefly, 60 μg of whole cell extract was solubilized in Laemmeli buffer (50 mM Tris/HCl, pH 6.8, 2% SDS, 10% glycerol, 1 mM DTT, 1× Protease inhibitor cocktail, SET-3 (Calbiochem), 1 mM Sodium Ortho-vanadate) boiled for 5-10 minutes, and separated on a 10 or 12% acrylamide SDS gel. After protein transfer, the nitrocellulose membranes were blocked in blocking buffer for 2 hour (1×TBS, 0.1% Tween-20, 5% BSA). Membranes were incubated for 20 hours in blocking buffer containing, STAT3 P-Tyr705 (Santa Cruz Biotech), STAT3 (H-190, Santa Cruz Biotech) and Actin (C-2, Santa Cruz Biotech) antibody at 1:300 dilution. Detection was performed with HRP conjugated antimouse/antirabbit IgG (Santa Cruz Biotech) at a dilution of 1:3,000 for 1 hour. Visualization was performed using an Enhanced Chemiluminescence detection kit (Amersham). See Appended Diagrams: FIGS. 1 and 2. […]
Capture Antibody was diluted to a working concentration of 2.0 μg/mL in PBS. […] The plates were made ready after 2-3 washes with wash buffer. […] The reaction was stopped by adding 50 μl of stop solution to each well and the OD was determined using a microplate reader at 450 nm.
In general terms: Immunoblotting shows a protein as a band on a membrane.

Series [3] relates to IL-6. In words: IL-6 in culture supernatants of NCIH 460 cells (ELISA). Type of series: cell-based, Human. The following applies: NCIH 460, 5 hours; for IC50: read-out: IL-6 Inhibition IC50. How it is done: Human Lung Cancer cell line (NCIH 460) is used for IL-6 measurement. 5000 cells/well were seeded in a 96 well plate and incubated in CO2 incubator at 37° C. for 24 hours. After 24 hours of incubation the medium from all wells were completed removed and added 100 μl of fresh DMEM containing 10% FCS. 100 μl of different concentrations of the drug were added and incubated for 5 hours in CO2 incubator at 37° C. After 5 hours of incubation the supernatants were collected and stored at −80° C. The concentration of IL-6 in the supernatant was measured using ELISA kit and the IC50 value of the compound was determined from the dose response curve, (See Table II).

Series [4] relates to MDAMB-231/U 251. The series can be described thus: Anti-cancer screen (MTT), MDAMB-231/U 251 cells. Format: cell-based. The following applies: MDAMB-231/U 251, 48 hours, concentrations tested 0.01-100 μM; for CC50: read-out: LC50 (the source's name). How it is done:
as §1, §2, §3, §4

Series [5] relates to NCIH460 cells. The series can be described thus: Anti-cancer screen (MTT), NCIH460 cells. Format: cell-based. Particulars: Homo sapiens, NCI-H460, NCIH460, 48 hours, concentrations tested 0.01-100 μM; for CC50: read-out: LC50 (the source's name). The protocol: as §1, §2, §3, §4
The test system of series [6] is NCI H460 Xenograft. The series can be described thus: In-vivo anti-cancer activity, NCI H460 xenograft model. More on the design: species or system SCID mice. Particulars: for in-vivo anti-cancer activity: NCI H460 Xenograft model, in words. How it is done:
Experiments were carried out using 6-8 week old female athymic SCID (Severe Combined Immune Deficient) mice. The mice were kept in laminar flow rooms (housed in Individually Ventilated Cages) at constant temperature and humidity. They had free access to food and water. Tumors were obtained form ATCC and maintained by s.c. passages of tumor fragments (about 2×2×2 mm) in healthy mice according to standard reported procedures. Each experimental group included six/eight mice bearing bilateral tumors. Tumors were implanted on day 0, and tumor growth was followed by biweekly measurements of tumor diameters with a Vernier caliper. Tumor Volume (TV) was calculated according to the following formula: TV (mm^3)=d^2 XD/2, where d and D are the shortest diameter and the longest diameter of the tumor, respectively. The drug treatment started when tumors were just measurable (Mean TV=150-200 mm^3).
(§5) All test compound/standard drugs were delivered by gavage in a volume of 10 ml/kg. Drugs were administered every day for single time to a period of 21 days. Control mice were treated with the drug solvent/vehicle. Tumor size is measured every alternate days and body weight is recorded daily.
(§6) • a) Tumor Volume Inhibition (TVI): A TVI value higher than 80% is indicative of active compounds. • b) T/C % is also another indicator for the activity. A reproducible 20% T/C is considered as therapeutically active. • c) Log Cell Kill (LCK): A LCK value greater than 1 is indicative of active compounds. • d) Relative Tumor Volume (RTV), Tumor Delay and % Tumor volume change are also considered as valuable additional parameters for assessment. • e) Toxic effects of drug treatment were assessed by Body Weight Loss % • f) Lethal toxicity was defined as any death in treated groups occurring before any control death. Mice were inspected daily for mortality and toxic clinical signs.

Series [7] relates to NCIH460, HCT116, MDAMB-231/U 251. The series can be described thus: Anti-cancer screen, mean GI50 over the cell lines. Type of series: cell-based. The protocol:
as §1, §2, §3, §4

For series [8] the following is noted: mouse, in vivo. How it is done: as §5, §6

Molecules are shown by their SMILES. Entries after “also recorded” stand apart in the source; their conditions may differ.

Usually GI50 stands for the concentration at which growth is held to half of that of the control. Lower therefore signals more potent growth inhibition. As a reminder, the inhibition is the percentage by which the read-out fell short of the control. A high value points to strong suppression. The term IC50 denotes the concentration at which inhibition is half-maximal. In series [1], `COc1ccc(CNCC(O)COc2cccc3[nH]c4ccccc4c23)c(OC)c1` (racemic) [Example 1, 1-(9H-carbazol-4-yloxy)-3-[(2,4-dimethoxybenzyl)amino]propan-2-ol] showed a 50% growth inhibitory concentration (GI50) of 8.5 µM, an IC (TGI) of 39 µM and an LC50 (concentration for 50% net cell kill relative to T0) of 79 µM. The pSTAT3 inhibition entry in series [2] is recorded as “work through pSTAT3 inhibition; also recorded: mechanism of action was through pSTAT3 inhibition”. Moreover, the inhibition at 0.1 µM in series [3] (Homo sapiens, NCI-H460, 0.1 μM) amounted to 45.7%. For the same compound, in series [3] (Homo sapiens, NCI-H460), testing at 1 µM gave an inhibition of 55.3% and the half-inhibitory concentration (IC50) amounted to 5 µM. For the same compound, in series [4], growth was halved (GI50) at 5 µM, the IC (TGI) is 9.8 µM and the CC50 is 60 µM. Also, in series [5], the 50% growth inhibitory concentration (GI50) amounted to 0.78 µM, the IC (TGI) was determined as 18 µM and the CC50 is 62 µM. Besides, in series [6], the in-vivo anti-cancer activity result is listed as “good in-vivo anti-cancer activity”. The “inhibition against NCI H460 Xenograft model” value in series [6] (SCID mice, gavage, every day for 21 days) amounted to 52%. In series [7], this compound yielded a GI50 of 4.8 µM.
In series [1], `OC(CNCc1ccccc1)COc1cccc2[nH]c3ccccc3c12` (stereo not shown) [Example 23, 1-(9H-carbazol-4-yloxy)-3-benzylaminopropan-2-ol] returned a GI50 of 18 µM, an IC (TGI) of 47 µM and an LC50 (concentration for 50% net cell kill relative to T0) of 77 µM. Moreover, in series [3] (Homo sapiens, NCI-H460), the inhibition at 10 µM amounted to 29.3% and the IC50 came out at 24 µM. In series [4], the GI50 turned out to be 1 µM, the IC (TGI) stood at 10 µM and the CC50 came out at 65 µM. Besides, in series [5], the GI50 was determined as 0.79 µM, the IC (TGI) was 35 µM and the CC50 was determined as 70 µM. This compound registered a GI50 in series [7] of 6.6 µM.
As for `COc1ccc(CNC[C@@H](O)COc2cccc3[nH]c4ccccc4c23)c(OC)c1` [Example 24, (2R)-1-(9H-carbazol-4-yloxy)-3-[(2,4-dimethoxy-benzyl)amino]propan-2-ol], the GI50 in series [1] came out at 8.3 µM; in series [4] it was 18 µM; in series [5] it was 0.76 µM; in series [7], 9 µM. In addition, the IC (TGI) in series [1] was 53 µM; in series [4], 51 µM; in series [5] it was 53 µM. Moreover, the LC50 (concentration for 50% net cell kill relative to T0) in series [1] was 80 µM. The “IL-6 Inhibition IC50 (μM)” value in series [3] is “No activity”. In addition, in series [8], the body weight loss result is given as “no body weight loss was observed”. Further, the CC50 is 79 µM in series [4] and 67 µM in series [5]. Moreover, in series [6], the in-vivo anti-cancer activity entry is reported as “good anti-cancer activity”.
In series [1], `O=C(c1ccc([N+](=O)[O-])o1)N1CCN(CC(O)COc2cccc3[nH]c4ccccc4c23)CC1` (stereo not shown) [Example 35, 1-(9H-carbazol-4-yloxy)-3-{4-(5-nitro-2-furoyl)piperazin-1-yl}propan-2-ol] displayed a concentration for 50% growth inhibition (GI50) of 6 µM, an IC (TGI) of 42 µM and an LC50 (concentration for 50% net cell kill relative to T0) of 85 µM. In series [3] (Homo sapiens, NCI-H460), at 1 µM the inhibition was 45% and at 10 µM the inhibition was 80.4%. For the same compound, in series [4], growth was halved (GI50) at 3 µM, the IC (TGI) is > 100 µM and the CC50 is > 100 µM. Besides, in series [5], the concentration for 50% growth inhibition (GI50) was 0.8 µM, the IC (TGI) amounted to 7.5 µM and the CC50 came to 60 µM. In addition, the GI50 in series [7] worked out at 3.27 µM.
`O=C(Cc1ccc(F)cc1)N1CCC(NCC(O)COc2cccc3[nH]c4ccccc4c23)CC1` (stereo not shown) [Example 66]: in series [1], the GI50 turned out to be 26 µM, the IC (TGI) came to 49 µM and the LC50 (concentration for 50% net cell kill relative to T0) is 84 µM. Besides, in series [4], the concentration for 50% growth inhibition (GI50) came to 15 µM, the IC (TGI) was determined as 48 µM and the CC50 was 77 µM. Besides, in series [5], the GI50 stood at 14 µM, the IC (TGI) stood at 54 µM and the CC50 was found to be 79 µM. Moreover, halving of growth in series [7] (GI50) required 18.3 µM.
In series [1], `N#Cc1ccc(C(=O)N2CCC(NCC(O)COc3cccc4[nH]c5ccccc5c34)CC2)cn1` (stereo not shown) [Example 70, 1-(9H-carbazol-4-yloxy)-3-{[1-(6-cyanonicotine-3-carbonyl)piperidin-4-yl]amino}propan-2-ol] returned a concentration for 50% growth inhibition (GI50) of 5 µM, an IC (TGI) of 23 µM and an LC50 (concentration for 50% net cell kill relative to T0) of 67 µM. In series [4], the GI50 came out at 3.5 µM, the IC (TGI) was 8.9 µM and the CC50 turned out to be 57 µM. Also, in series [5], the GI50 was 23 µM, the IC (TGI) was 50 µM and the CC50 came out at 78 µM. Further, the concentration for 50% growth inhibition (GI50) in series [7] worked out at 10.5 µM.
